This is an account of results in ChEMBL document CHEMBL2074575, “Human organic anion transporting polypeptide-C (SLC21A6) is a major determinant of rifampin-mediated pregnane X receptor activation” (J Pharmacol Exp Ther, 2003).

What all share (assay type): functional, cell-based
Data set [1] deals with T1, Solute carrier organic anion transporter family member 1B1 (Homo sapiens, UniProt Q9Y6L6).
T1 sequence (Q9Y6L6 whole entry): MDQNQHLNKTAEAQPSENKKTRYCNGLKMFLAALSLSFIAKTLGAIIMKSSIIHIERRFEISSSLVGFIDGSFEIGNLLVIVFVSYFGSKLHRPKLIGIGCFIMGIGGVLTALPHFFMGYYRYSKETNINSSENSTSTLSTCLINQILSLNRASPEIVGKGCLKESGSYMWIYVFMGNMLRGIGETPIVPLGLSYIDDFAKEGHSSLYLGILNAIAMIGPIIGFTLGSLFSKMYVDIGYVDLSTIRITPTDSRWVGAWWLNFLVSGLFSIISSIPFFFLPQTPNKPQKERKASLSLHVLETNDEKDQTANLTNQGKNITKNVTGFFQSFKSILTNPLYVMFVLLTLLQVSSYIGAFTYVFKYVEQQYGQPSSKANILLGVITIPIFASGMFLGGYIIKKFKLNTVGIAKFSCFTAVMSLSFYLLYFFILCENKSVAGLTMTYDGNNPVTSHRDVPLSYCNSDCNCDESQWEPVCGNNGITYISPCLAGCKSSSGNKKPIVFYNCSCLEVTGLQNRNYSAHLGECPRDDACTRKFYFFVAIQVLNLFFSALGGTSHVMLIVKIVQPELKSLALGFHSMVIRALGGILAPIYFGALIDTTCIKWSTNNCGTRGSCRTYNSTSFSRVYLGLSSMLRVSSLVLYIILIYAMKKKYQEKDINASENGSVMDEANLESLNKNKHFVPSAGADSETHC
Nature of the data set: TP_TRANSPORTER: inhibition of E217betaG uptake (E217betaG: 0.5 uM, Rifampicin: 10 uM) in OATP-C-expressing HeLa cells.

Data set [2] deals with T1, Solute carrier organic anion transporter family member 1B1. Nature of the data set: TP_TRANSPORTER: inhibition of E217betaG uptake (E217betaG: 0.5 uM, Nelfinavir: 10 uM) in OATP-C-expressing HeLa cells.
For data set [3] the target is unchanged. Description: TP_TRANSPORTER: inhibition of E217betaG uptake (E217betaG: 0.5 uM, Hyperforin: 10 uM) in OATP-C-expressing HeLa cells.
The target is the same in data set [4]. Nature of the data set: TP_TRANSPORTER: inhibition of E217betaG uptake (E217betaG: 0.5 uM, Saquinavir: 100 uM) in OATP-C-expressing HeLa cells.
For data set [5] the target is unchanged. Nature of the data set: TP_TRANSPORTER: inhibition of E217betaG uptake (E217betaG: 0.5 uM, BSP: 10 uM) in OATP-C-expressing HeLa cells.
Data set [6] shares this target. Nature of the data set: TP_TRANSPORTER: inhibition of E217betaG uptake (E217betaG: 0.5 uM, Indinavir: 10 uM) in OATP-C-expressing HeLa cells.
Substrate in data set [7]: CO[C@H]1/C=C/O[C@@]2(C)Oc3c(C)c(O)c4c(O)c(c(/C=N/N5CCN(C)CC5)c(O)c4c3C2=O)NC(=O)/C(C)=C\C=C\[C@H](C)[C@H](O)[C@@H](C)[C@@H](O)[C@@H](C)[C@H](OC(C)=O)[C@@H]1C
Description: TP_TRANSPORTER: uptake in OATP-C-expressing HeLa cells.

For `CO[C@H]1/C=C/O[C@@]2(C)Oc3c(C)c(O)c4c(O)c(c(/C=N/N5CCN(C)CC5)c(O)c4c3C2=O)NC(=O)/C(C)=C\C=C\[C@H](C)[C@H](O)[C@@H](C)[C@@H](O)[C@@H](C)[C@H](OC(C)=O)[C@@H]1C` [RIFAMPIN], the Activity result in data set [1] was “inhibitor [(at a rough estimate) 10 % of control]”.

Regarding `Cc1c(O)cccc1C(=O)N[C@@H](CSc1ccccc1)[C@H](O)CN1C[C@H]2CCCC[C@H]2C[C@H]1C(=O)NC(C)(C)C`, in data set [2], the Activity entry was “inhibitor [(at a rough estimate) 15 % of control]”.

`CC(C)=CCC[C@]1(C)[C@@H](CC=C(C)C)C[C@]2(CC=C(C)C)C(=O)C(CC=C(C)C)=C(O)[C@@]1(C(=O)C(C)C)C2=O`: the Activity result in data set [3] is “inhibitor [(at a rough estimate) 10 % of control]”.

With `CC(C)(C)NC(=O)[C@@H]1C[C@@H]2CCCC[C@@H]2CN1C[C@@H](O)[C@H](Cc1ccccc1)NC(=O)[C@H](CC(N)=O)NC(=O)c1ccc2ccccc2n1`, the Activity entry in data set [4] is “inhibitor [(at a rough estimate) 10 % of control]”.

In the case of `O=C1OC(c2ccc(O)c(S(=O)(=O)[O-])c2)(c2ccc(O)c(S(=O)(=O)[O-])c2)c2c(Br)c(Br)c(Br)c(Br)c21.[Na+].[Na+]` [SULFOBROMOPHTHALEIN SODIUM], the Activity entry in data set [5] was “inhibitor [(at a rough estimate) <5 % of control]”.

For `CC(C)(C)NC(=O)[C@@H]1CN(Cc2cccnc2)CCN1C[C@@H](O)C[C@@H](Cc1ccccc1)C(=O)N[C@H]1c2ccccc2C[C@H]1O.O`, in data set [6], the Activity result is “inhibitor [(at a rough estimate) 35 % of control]”.

B1: Solute carrier organic anion transporter family member 1B1 (Homo sapiens) (protein)
chain: T1 sequence (Q9Y6L6 whole entry)
Turning to B1, the Km in data set [7] amounted to 1.5 µM.

As a reminder, the Km is the concentration of substrate that gives half-maximal velocity.
